Patent US9326973B2, “Hepatitis C virus inhibitors” (priority 2012, dated 2016)

System: HCV replicon, genotype-1a variant with glutamine 30 changed to glutamate in the NS5A protein
Assay: microbe, parasite or virus in culture
Format: cell-based, HCV genotype 1a
Settings: HCV replicon genotype 1a Q30E (Q→E) variant; test compound titrated with an NS5A-targeting compound (BMS-790052 fixed at 200 nM); ranking of synergist activity
How it was run: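 Synergy was assessed by combining several fixed amounts of an NS5A-targeting compound with a titration of the second compound of interest.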

Structure (SMILES)	Fold-Synergistic 1a (Q30E)
CC1(OC(=O)N2C[C@H](F)C[C@H]2C(=O)N[C@H](c2nc(-c3ccc(-c4ccc(-c5c[nH]c([C@@H](NC(=O)[C@@H]6C[C@@H](F)CN6C(=O)OC6(C)CC6)C(C)(C)C)n5)cc4)cc3)c[nH]2)C(C)(C)C)CC1 [Compound W-119]	>100 fold
C[C@@H]1C[C@@H](C(=O)N[C@H](c2nc(-c3ccc(-c4ccc(-c5c[nH]c([C@@H](NC(=O)[C@@H]6C[C@@H](C)CN6C(=O)OC(C)(C)C)C(C)(C)C)n5)cc4)cc3)c[nH]2)C(C)(C)C)N(C(=O)OC(C)(C)C)C1 [Compound W-120]	>100 fold
CC(C)(C)OC(=O)N1[C@@H]2CC[C@@H](C2)[C@H]1C(=O)N[C@H](c1nc(-c2ccc(-c3ccc(-c4c[nH]c([C@@H](NC(=O)[C@@H]5[C@H]6CC[C@H](C6)N5C(=O)OC(C)(C)C)C(C)(C)C)n4)cc3)cc2)c[nH]1)C(C)(C)C [Compound W-121]	>100 fold
CC1(C)CC(C(=O)N[C@H](c2nc(-c3ccc(-c4ccc(-c5c[nH]c([C@@H](NC(=O)C6CCOC(C)(C)C6)C(C)(C)C)n5)cc4)cc3)c[nH]2)C(C)(C)C)CCO1 (stereo partly shown) [Compound W-122]	>100 fold
CC(C)(C)[C@H](NC(=O)C1CCOCC1)c1nc(-c2ccc(-c3ccc(-c4c[nH]c([C@@H](NC(=O)C5CCOCC5)C(C)(C)C)n4)cc3)cc2)c[nH]1 [Compound W-123]	>100 fold
COC(=O)C1(C(=O)N[C@H](c2nc(-c3ccc(-c4ccc(-c5c[nH]c([C@@H](NC(=O)C6(C(=O)OC)CC6)C(C)(C)C)n5)cc4)cc3)c[nH]2)C(C)(C)C)CC1 [Compound W-124]	>100 fold
CC(CO)(CO)C(=O)N[C@H](c1nc(-c2ccc(-c3ccc(-c4c[nH]c([C@@H](NC(=O)C(C)(CO)CO)C(C)(C)C)n4)cc3)cc2)c[nH]1)C(C)(C)C [Compound W-125]	>100 fold
CCOC(=O)C(C)(C)C(=O)N[C@H](c1nc(-c2ccc(-c3ccc(-c4c[nH]c([C@@H](NC(=O)C(C)(C)C(=O)OCC)C(C)(C)C)n4)cc3)cc2)c[nH]1)C(C)(C)C [Compound W-126]	>100 fold
CC(C)(C)[C@H](NC(=O)C12CCC(O)(CC1)CC2)c1nc(-c2ccc(-c3ccc(-c4c[nH]c([C@@H](NC(=O)C56CCC(O)(CC5)CC6)C(C)(C)C)n4)cc3)cc2)c[nH]1 [Compound W-128]	>100 fold
CC(C)(C)[C@H](NC(=O)C1CCOC1)c1nc(-c2ccc(-c3ccc(-c4c[nH]c([C@@H](NC(=O)C5CCOC5)C(C)(C)C)n4)cc3)cc2)c[nH]1 (stereo partly shown) [Compound W-129]	>10 fold
CC1(C(=O)N[C@H](c2nc(-c3ccc(-c4ccc(-c5c[nH]c([C@@H](NC(=O)C6(C)CCOCC6)C(C)(C)C)n5)cc4)cc3)c[nH]2)C(C)(C)C)CCOCC1 [Compound W-130]	>100 fold
CC(C)(C)[C@H](NC(=O)C1CCCOC1)c1nc(-c2ccc(-c3ccc(-c4c[nH]c([C@@H](NC(=O)C5CCCOC5)C(C)(C)C)n4)cc3)cc2)c[nH]1 (stereo partly shown) [Compound W-131]	>100 fold
CC(C)(C)OC(=O)NC1(C(=O)N[C@H](c2nc(-c3ccc(-c4ccc(-c5c[nH]c([C@@H](NC(=O)C6(NC(=O)OC(C)(C)C)CCOCC6)C(C)(C)C)n5)cc4)cc3)c[nH]2)C(C)(C)C)CCOCC1 [Compound W-132]	>100 fold
CC(C)(C)[C@H](NC(=O)[C@H]1CC[C@@H](O)CC1)c1nc(-c2ccc(-c3ccc(-c4c[nH]c([C@@H](NC(=O)[C@H]5CC[C@@H](O)CC5)C(C)(C)C)n4)cc3)cc2)c[nH]1 [Compound W-134]	>100 fold
CC(C)(C(=O)N[C@H](c1nc(-c2ccc(-c3ccc(-c4c[nH]c([C@@H](NC(=O)C(C)(C)C(=O)N5CCC(O)CC5)C(C)(C)C)n4)cc3)cc2)c[nH]1)C(C)(C)C)C(=O)N1CCC(O)CC1 [Compound W-136]	>10 fold
CN(C)C(=O)C(C)(C)C(=O)N[C@H](c1nc(-c2ccc(-c3ccc(-c4c[nH]c([C@@H](NC(=O)C(C)(C)C(=O)N(C)C)C(C)(C)C)n4)cc3)cc2)c[nH]1)C(C)(C)C [Compound W-138]	>100 fold
CC(C)(C(=O)NCC(F)(F)F)C(=O)N[C@H](c1nc(-c2ccc(-c3ccc(-c4c[nH]c([C@@H](NC(=O)C(C)(C)C(=O)NCC(F)(F)F)C(C)(C)C)n4)cc3)cc2)c[nH]1)C(C)(C)C [Compound W-139]	>100 fold
CN(C(=O)C(C)(C)C(=O)N[C@H](c1nc(-c2ccc(-c3ccc(-c4c[nH]c([C@@H](NC(=O)C(C)(C)C(=O)N(C)C5CC5)C(C)(C)C)n4)cc3)cc2)c[nH]1)C(C)(C)C)C1CC1 [Compound W-140]	<10 fold
CC(C)(C(=O)N[C@H](c1nc(-c2ccc(-c3ccc(-c4c[nH]c([C@@H](NC(=O)C(C)(C)C(=O)N5CCC(F)(F)CC5)C(C)(C)C)n4)cc3)cc2)c[nH]1)C(C)(C)C)C(=O)N1CCC(F)(F)CC1 [Compound W-141]	>100 fold
CC(C)(C(=O)N[C@H](c1nc(-c2ccc(-c3ccc(-c4c[nH]c([C@@H](NC(=O)C(C)(C)C(=O)N5CCC(F)CC5)C(C)(C)C)n4)cc3)cc2)c[nH]1)C(C)(C)C)C(=O)N1CCC(F)CC1 [Compound W-142]	>100 fold
COC1CCN(C(=O)C(C)(C)C(=O)N[C@H](c2nc(-c3ccc(-c4ccc(-c5c[nH]c([C@@H](NC(=O)C(C)(C)C(=O)N6CCC(OC)CC6)C(C)(C)C)n5)cc4)cc3)c[nH]2)C(C)(C)C)CC1 [Compound W-143]	>100 fold
CC(C)(C(=O)N[C@H](c1nc(-c2ccc(-c3ccc(-c4c[nH]c([C@@H](NC(=O)C(C)(C)C(=O)N5CC(O)C5)C(C)(C)C)n4)cc3)cc2)c[nH]1)C(C)(C)C)C(=O)N1CC(O)C1 [Compound W-144]	>10 fold
CC(C)(C(=O)N[C@H](c1nc(-c2ccc(-c3ccc(-c4c[nH]c([C@@H](NC(=O)C(C)(C)C(=O)N5CC6CCC(C5)O6)C(C)(C)C)n4)cc3)cc2)c[nH]1)C(C)(C)C)C(=O)N1CC2CCC(C1)O2 [Compound W-145]	>10 fold
C[C@@H]1CCCCN1C(=O)C(C)(C)C(=O)N[C@H](c1nc(-c2ccc(-c3ccc(-c4c[nH]c([C@@H](NC(=O)C(C)(C)C(=O)N5CCCC[C@H]5C)C(C)(C)C)n4)cc3)cc2)c[nH]1)C(C)(C)C [Compound W-148]	>100 fold
CC(C)(Br)C(=O)N[C@H](c1nc(-c2ccc(-c3ccc(-c4c[nH]c([C@@H](NC(=O)C(C)(C)Br)C(C)(C)C)n4)cc3)cc2)c[nH]1)C(C)(C)C [Compound W-149]	>100 fold
CC(C)(C)[C@H](NC(=O)C(C)(C)n1cnc(C(F)(F)F)c1)c1nc(-c2ccc(-c3ccc(-c4c[nH]c([C@@H](NC(=O)C(C)(C)n5cnc(C(F)(F)F)c5)C(C)(C)C)n4)cc3)cc2)c[nH]1 [Compound W-150]	>100 fold
CC(C)(C(=O)N[C@H](c1nc(-c2ccc(-c3ccc(-c4c[nH]c([C@@H](NC(=O)C(C)(C)C(=O)N5CC[C@@H](O)C5)C(C)(C)C)n4)cc3)cc2)c[nH]1)C(C)(C)C)C(=O)N1CC[C@@H](O)C1 [Compound W-151]	>10 fold
CC(C)(C(=O)N[C@H](c1nc(-c2ccc(-c3ccc(-c4c[nH]c([C@@H](NC(=O)C(C)(C)C(=O)N5CC[C@H](O)C5)C(C)(C)C)n4)cc3)cc2)c[nH]1)C(C)(C)C)C(=O)N1CC[C@H](O)C1 [Compound W-152]	>100 fold
